# Measured values published in ChEMBL document CHEMBL3091428, “Synthesis and initial biological evaluation of substituted 1-phenylamino-2-thio-4,5-dimethyl-1H-imidazole derivatives” (Bioorg Med Chem Lett, 2013).
# Tests used:
# Format in all cases: functional
# Pichia kudriavzevii = test: Antimicrobial activity against Candida krusei ATCC 6258 after 24 hrs by broth microdilution method; settings: ATCC 6258, 24 h
# Staphylococcus aureus = test: Antimicrobial activity against Staphylococcus aureus ATCC 25923 after 24 hrs by broth microdilution method; settings: ATCC 25923, 24 h
# Listeria monocytogenes = test: Antimicrobial activity against Listeria monocytogenes ATCC 19115 after 24 hrs by broth microdilution method; settings: ATCC 19115, 24 h
# Klebsiella pneumoniae = test: Antimicrobial activity against Klebsiella pneumoniae ATCC 13883 after 24 hrs by broth microdilution method; settings: ATCC 13883, 24 h
# Nakaseomyces glabratus = test: Antimicrobial activity against Candida glabrata ATCC 90030 after 24 hrs by broth microdilution method; settings: ATCC 90030, 24 h
# Escherichia coli [1] = test: Antimicrobial activity against Escherichia coli ATCC 25922 after 24 hrs by broth microdilution method; settings: ATCC 25922, 24 h
# Pseudomonas aeruginosa = test: Antimicrobial activity against Pseudomonas aeruginosa ATCC 27853 after 24 hrs by broth microdilution method; settings: ATCC 27853, 24 h
# Escherichia coli [2] = test: Antimicrobial activity against Escherichia coli ATCC 35218 after 24 hrs by broth microdilution method; settings: ATCC 35218, 24 h
# Enterococcus faecalis [3] = test: Antimicrobial activity against Enterococcus faecalis ATCC 29212 after 24 hrs by broth microdilution method; settings: ATCC 29212, 24 h
# Enterococcus faecalis [4] = test: Antimicrobial activity against Enterococcus faecalis ATCC 51299 after 24 hrs by broth microdilution method; settings: ATCC 51299, 24 h
# Candida albicans = test: Antimicrobial activity against Candida albicans ATCC 90028 after 24 hrs by broth microdilution method; settings: ATCC 90028, 24 h
SMILES,MIC (Pichia kudriavzevii) [µg/mL],MIC (Staphylococcus aureus) [µg/mL],MIC (Listeria monocytogenes) [µg/mL],MIC (Klebsiella pneumoniae) [µg/mL],MIC (Nakaseomyces glabratus) [µg/mL],MIC (Escherichia coli [1]) [µg/mL],MIC (Pseudomonas aeruginosa) [µg/mL],MIC (Escherichia coli [2]) [µg/mL],MIC (Enterococcus faecalis [3]) [µg/mL],MIC (Enterococcus faecalis [4]) [µg/mL],MIC (Candida albicans) [µg/mL]
COc1ccc(Nn2c(SCC(=O)c3ccccc3)nc(C)c2C)cc1,800,800,800,800,800,800,800,800,800,100,800
Cc1nc(SCC(=O)c2ccc(F)cc2)n(Nc2ccc(Cl)cc2)c1C,800,800,3200,800,1600,1600,1600,1600,1600,800,800
COc1ccc(C(=O)CSc2nc(C)c(C)n2Nc2ccccc2)cc1OC,50,200,400,400,800,800,400,200,400,800,200
Cc1nc(SCC(=O)c2cccc(Cl)c2)n(Nc2ccc(Cl)cc2)c1C,800,800,800,800,400,800,400,800,400,800,800
COc1cccc(C(=O)CSc2nc(C)c(C)n2Nc2ccccc2)c1,400,800,800,400,400,400,400,800,800,800,400
Cc1nc(SCC(=O)c2ccc(F)cc2)n(Nc2ccccc2)c1C,200,800,400,400,400,800,400,400,400,400,400
Cc1ccc(Nn2c(SCC(=O)c3ccc(F)cc3)nc(C)c2C)cc1,1600,1600,1600,1600,1600,1600,1600,1600,1600,1600,1600
COc1ccc(Nn2c(SCC(=O)c3cccc(Cl)c3)nc(C)c2C)cc1,400,800,800,800,800,800,800,800,800,800,800
COc1ccc(Nn2c(SCC(=O)c3ccc(F)c(F)c3)nc(C)c2C)cc1,400,800,800,800,800,800,800,800,1600,800,400
Cc1nc(SCC(=O)c2cccc(Cl)c2)n(Nc2ccccc2)c1C,200,400,400,800,400,400,400,400,400,400,800
COc1ccc(C(=O)CSc2nc(C)c(C)n2Nc2ccc(Cl)cc2)cc1OC,400,800,100,800,400,400,400,800,100,800,400
O=C(N[C@H](CO)[C@H](O)c1ccc([N+](=O)[O-])cc1)C(Cl)Cl [CHLORAMPHENICOL],–,50,50,50,–,50,50,25,12.5,100,–
CC(=O)N1CCN(c2ccc(OCC3COC(Cn4ccnc4)(c4ccc(Cl)cc4Cl)O3)cc2)CC1 (stereo not drawn) [KETOCONAZOLE],50,–,–,–,100,–,–,–,–,–,100
Cc1nc(SCC(=O)c2ccccc2)n(Nc2ccc(Cl)cc2)c1C,800,800,400,800,800,800,400,800,200,800,800
